Patent US7338958B2, “Sulfoximine-substituted pyrimidines as CDK-and/or VEGF inhibitors, their production and use as pharmaceutical agents” (Schering AG, priority 2003, dated 2008)

What was measured:
CDK1/CycB = biological target: T1, CDK1/CycB (Homo sapiens, UniProt P06493); assay: CDK1/CycB Kinase Assay; format: biochemical; conditions: histone IIIS substrate, 33P-ATP, 15 minutes at 22° C.
T1 construct: GST; purchased ProQinase GmbH, Freiburg; host or cells: baculovirus-infected insect cells (Sf9)
T1 sequence (P06493 whole entry): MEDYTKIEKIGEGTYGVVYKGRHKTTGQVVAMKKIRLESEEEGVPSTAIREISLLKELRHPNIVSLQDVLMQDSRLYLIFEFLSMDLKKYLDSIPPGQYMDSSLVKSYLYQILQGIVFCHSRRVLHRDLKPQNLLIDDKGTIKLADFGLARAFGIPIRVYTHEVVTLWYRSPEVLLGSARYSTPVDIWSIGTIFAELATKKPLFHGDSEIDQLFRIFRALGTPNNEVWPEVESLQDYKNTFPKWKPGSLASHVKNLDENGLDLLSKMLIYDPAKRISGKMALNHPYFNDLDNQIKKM
T1 sequence (P14635 whole entry partner): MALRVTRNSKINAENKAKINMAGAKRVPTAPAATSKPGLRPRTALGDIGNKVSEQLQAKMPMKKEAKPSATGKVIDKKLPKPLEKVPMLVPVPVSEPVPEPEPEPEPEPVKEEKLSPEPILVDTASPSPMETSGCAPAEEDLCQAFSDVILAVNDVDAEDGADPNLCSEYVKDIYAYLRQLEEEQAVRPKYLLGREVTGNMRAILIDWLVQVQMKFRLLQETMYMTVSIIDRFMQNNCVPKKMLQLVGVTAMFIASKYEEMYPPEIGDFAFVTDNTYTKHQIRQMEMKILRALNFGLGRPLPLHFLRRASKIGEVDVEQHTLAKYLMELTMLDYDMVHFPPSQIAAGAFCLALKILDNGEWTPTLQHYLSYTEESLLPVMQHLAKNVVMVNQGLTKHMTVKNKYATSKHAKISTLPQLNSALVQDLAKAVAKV
Method: Recombinant CDK1- and CycB-GST-fusion proteins, purified from baculovirus-infected insect cells (Sf9), were purchased from ProQinase GmbH, Freiburg. Histone IIIS, used as a kinase substrate, is available commercially from the Sigma Company.
The reaction was stopped by adding EDTA solution (250 mmol, pH 8.0, 14 μl/measuring point).
(§1) From each reaction batch, 10 μl was applied to P30 filter strips (Wallac Company), and non-incorporated 33P-ATP was removed by subjecting the filter strips to three washing cycles for 10 minutes each in 0.5% phosphoric acid. After the filter strips were dried for one hour at 70° C., the filter strips were covered with scintillator strips (MeltiLex™ A, Wallac Company) and baked for one hour at 90° C. The amount of incorporated 33P (substrate phosphorylation) was determined by scintillation measurement in a gamma-radiation measuring device (Wallac).

[1] = test system: MCF7, hormone-independent human breast cancer cells; assay: Proliferation assay, MCF7; format: cell-based; conditions: MCF7, 96 h, 4 days incubation, crystal violet
Source text: (§2) Cultivated human tumor cells (MCF7, hormone-independent human breast cancer cells, related to ATCC HTB22; NCI-H460, human non-small-cell lung cancer cells, ATCC HTB-177, HCT 116, human colon cancer cells, ATCC CCL-247; DU 145, hormone-independent human prostate cancer cells, ATCC HTB-81; MaTu-MDR, hormone-independent, multiple pharmaceutical agent-resistant human breast cancer cells, EPO-GmbH, Berlin) were flattened out at a density of about 5000 cells/measuring point, depending on the growth rate of the respective cells, in a 96-well multititer plate in 200 μl of the corresponding growth medium. After 24 hours, the cells of one plate (zero-point plate) were colored with crystal violet (see below), while the medium of the other plates was replaced by fresh culture medium (200 μl), to which the test substances were added in various concentrations (0 μm, as well as in the range of 0.01-30 μm; the final concentration of the solvent dimethyl sulfoxide was 0.5%). The cells were incubated for 4 days in the presence of test substances. The cell proliferation was determined by coloring the cells with crystal violet: the cells were fixed by adding 20 μl/measuring point of an 11% glutaric aldehyde solution for 15 minutes at room temperature. After three washing cycles of the fixed cells with water, the plates were dried at room temperature. The cells were colored by adding 100 μl/measuring point of a 0.1% crystal violet solution (the pH was set at 3 by adding acetic acid). After three washing cycles of the colored cells with water, the plates were dried at room temperature. The dye was dissolved by adding 100 μl/measuring point of a 10% acetic acid solution. The extinction was determined by photometry at a wavelength of 595 nm. The change of cell growth, in percent, was calculated by normalization of the measured values to the extinction values of the zero-point plate (=0%) and the extinction of the untreated (0 μm) cells (=100%).

CDK2/CycE = biological target: T2, CDK2/CycE (Homo sapiens, UniProt P24941); assay: CDK2/CycE Kinase Assay; format: biochemical; conditions: histone IIIS substrate, 33P-ATP, 15 minutes at 22° C.
T2 construct: GST; purchased ProQinase GmbH, Freiburg; host or cells: baculovirus-infected insect cells (Sf9)
Method: Recombinant CDK2- and CycE-GST-fusion proteins, purified from baculovirus-infected insect cells (Sf9), were purchased by ProQinase GmbH, Freiburg. Histone IIIs, which was used as a kinase substrate, was purchased by the Sigma Company.
CDK2/CycE (50 ng/measuring point) was incubated for 15 minutes at 22° C. in the presence of various concentrations of test substances (0 μm, as well as within the range of 0.01-100 μm) in assay buffer [50 mmol of tris/HCl, pH 8.0, 10 mmol of MgCl2, 0.1 mmol of Na ortho-vanadate, 1.0 mmol of dithiothreitol, 0.5 μm of adenosine triphosphate (ATP), 10 μg/measuring point of histone IIIS, 0.2 μCi/measuring point of ^33P-gamma ATP, 0.05% NP40, 12.5% dimethyl sulfoxide]. The reaction was stopped by adding EDTA solution (250 mmol, pH 8.0, 14 μl/measuring point).
as §1, with “^33P-ATP” for “33P-ATP”, “^33P” for “33P”

[2] = biological target: T3, VEGF receptor tyrosine kinase-2 (Homo sapiens, UniProt P35968); assay: VEGF Receptor-2 Kinase Assay; format: biochemical; conditions: poly-(Glu4Tyr) substrate, 33P-ATP, 10 minutes at 22° C.; read-out: VEGF-R2 IC50
T3 construct: GST; made in house; host or cells: baculovirus-infected insect cells (Sf9)
T3 sequence (P35968 20-1356): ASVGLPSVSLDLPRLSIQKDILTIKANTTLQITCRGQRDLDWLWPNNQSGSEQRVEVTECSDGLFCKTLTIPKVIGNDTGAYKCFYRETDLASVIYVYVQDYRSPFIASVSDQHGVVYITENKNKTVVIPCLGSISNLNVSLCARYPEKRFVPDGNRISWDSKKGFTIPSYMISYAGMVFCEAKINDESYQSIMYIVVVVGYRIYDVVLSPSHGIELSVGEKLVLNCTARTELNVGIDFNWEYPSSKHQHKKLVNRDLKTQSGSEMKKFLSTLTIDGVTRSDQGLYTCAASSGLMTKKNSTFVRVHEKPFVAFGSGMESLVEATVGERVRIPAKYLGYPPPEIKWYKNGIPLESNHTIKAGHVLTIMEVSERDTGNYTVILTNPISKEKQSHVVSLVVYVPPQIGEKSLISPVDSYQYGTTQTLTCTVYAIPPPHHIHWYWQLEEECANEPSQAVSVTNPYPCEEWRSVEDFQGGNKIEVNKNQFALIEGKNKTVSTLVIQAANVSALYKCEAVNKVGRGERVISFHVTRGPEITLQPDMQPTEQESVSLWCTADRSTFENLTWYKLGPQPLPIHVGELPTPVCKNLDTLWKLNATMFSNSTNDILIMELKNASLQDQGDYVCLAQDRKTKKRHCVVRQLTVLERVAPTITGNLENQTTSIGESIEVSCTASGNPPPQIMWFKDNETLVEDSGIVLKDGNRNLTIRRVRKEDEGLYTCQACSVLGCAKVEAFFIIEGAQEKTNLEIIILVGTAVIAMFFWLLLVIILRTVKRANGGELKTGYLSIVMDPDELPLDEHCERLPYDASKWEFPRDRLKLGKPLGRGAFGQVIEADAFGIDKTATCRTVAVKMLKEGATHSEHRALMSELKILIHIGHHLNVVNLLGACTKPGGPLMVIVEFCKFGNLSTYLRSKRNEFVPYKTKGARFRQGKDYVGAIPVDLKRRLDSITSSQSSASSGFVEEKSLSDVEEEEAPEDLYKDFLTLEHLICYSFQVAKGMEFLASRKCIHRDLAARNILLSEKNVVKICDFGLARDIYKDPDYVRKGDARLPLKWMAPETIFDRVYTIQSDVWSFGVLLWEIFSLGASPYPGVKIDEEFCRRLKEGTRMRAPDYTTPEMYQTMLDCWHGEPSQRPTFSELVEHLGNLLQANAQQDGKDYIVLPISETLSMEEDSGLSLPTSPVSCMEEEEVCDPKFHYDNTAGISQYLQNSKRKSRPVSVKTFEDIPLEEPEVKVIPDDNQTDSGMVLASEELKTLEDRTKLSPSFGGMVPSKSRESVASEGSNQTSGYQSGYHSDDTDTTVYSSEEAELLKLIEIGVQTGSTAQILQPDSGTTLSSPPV
Method: VEGF Receptor-2 Kinase Assay
Recombinant VEGF receptor tyrosine kinase-2 was purified as a GST fusion protein from baculovirus-infected insect cells (Sf9). Poly-(Glu4Tyr), which was used as a kinase substrate, was purchased by the Sigma Company.
VEGF receptor tyrosine kinase (90 ng/measuring point) was incubated for 10 minutes at 22° C. in the presence of various concentrations of test substances (0 μm, as well as within the range of 0.001-30 μm) in 30 μl of assay buffer [40 mmol of Tris/HCl, […], 10 mmol of MgCl2, 1 mmol of MnCl2, 3 μmol of Na ortho-vanadate, 1.0 mmol of dithiothreitol, 8 μmol of adenosine trisphosphate (ATP), 27 μg/measuring point of poly-(Glu4Tyr), 0.2 μCi/measuring point of 33P-gamma ATP, 1% dimethyl sulfoxide]. The reaction was stopped by adding EDTA solution (250 mmol, pH 7.0, 10 μl/measuring point).
as §1

[3] = test system: DU 145, hormone-independent human prostate cancer cells; assay: Proliferation assay, DU145; format: cell-based; conditions: DU-145, 96 h, 4 days incubation, crystal violet
Source text: as §2

| SMILES | IC50 (CDK1/CycB) | IC50 [1] | IC50 [2] | other results |
| --- | --- | --- | --- | --- |
| C[C@@H](O)[C@@H](C)Oc1nc(Nc2ccc(S(=N)(=O)CCO)cc2)ncc1Br (mixture of isomers) [Example 1.21, (RS)-S-[4-({5-bromo-4-[(1R,2R)-2-hydroxy-1-methyl-propoxy]pyrimidin-2-yl}amino)phenyl]-S-(2-hydroxyethyl)sulfoximide] | 5 nM | < 100 nM | – | – |
| CN=S(C)(=O)c1ccc(Nc2ncc(Br)c(N[C@H](C)[C@@H](C)O)n2)cc1 (mixture of isomers) [Example 1.29, (RS)-S-[4-({5-bromo-4-[(1R,2R)-(2-hydroxy-1-methylpropyl)amino]pyrimidin-2-yl}amino)phenyl]-N,S-dimethyl-sulfoximide] | 7 nM | – | – | IC50 (CDK2/CycE): 4 nM |
| CN=S(C)(=O)c1ccc(Nc2ncc(Br)c(N[C@H](C)[C@@H](C)O)n2)cc1 (mixture of isomers) [Example 1.30, (RS)-S-[4-({5-bromo-4-[(1R,2R)-(2-hydroxy-1-methylpropyl)amino]pyrimidin-2-yl}amino)phenyl]-N,S-dimethyl-sulfoximide] | 15 nM | – | – | IC50 (CDK2/CycE): 6 nM |
| CCOC(=O)N=S(=O)(CC)c1ccc(Nc2ncc(Br)c(N[C@H](COC)[C@@H](C)O)n2)cc1 (mixture of isomers) [Example 1.33, (RS)-S-{4-[(5-bromo-4-{[(1R,2R)-2-hydroxy-1-(methoxymethyl)propyl]amino}pyrimidin-2-yl)amino]phenyl}-N-(ethoxycarbonyl)-S-ethyl sulfoximide] | 200 nM | 1000 nM | 450 nM | – |
| CCOC(=O)N=S(C)(=O)c1ccc(Nc2ncc(Br)c(N[C@H](COC)[C@@H](C)O)n2)cc1 (mixture of isomers) [Example 1.34, (RS)-S-{4-[(5-bromo-4-{[(1R,2R)-2-hydroxy-1-(methoxymethyl)propyl]amino}pyrimidin-2-yl)amino]phenyl}-N-(ethoxycarbonyl)-S-methyl sulfoximide] | – | 800 nM | 530 nM | IC50 (CDK2/CycE): 28 nM |
| C[C@@H](O)[C@@H](C)Nc1nc(Nc2ccc(S(C)(=N)=O)cc2)ncc1Br (mixture of isomers) [Example 1.43, (RS)-S-[4-({5-bromo-4-[(1R,2R)-(2-hydroxy-1-methylpropyl)amino]pyrimidin-2-yl}amino)phenyl]-S-methyl sulfoximide] | – | < 100 nM | – | – |
| COC[C@@H](Nc1nc(Nc2ccc(S(C)(=N)=O)cc2)ncc1Br)[C@@H](C)O (mixture of isomers) [Example 1.46, (RS)-S-{4-[(5-bromo-4-{[(1R,2R)-2-hydroxy-1-(methoxymethyl)-propyl]amino}pyrimidin-2-yl)amino]phenyl}-S-methyl sulfoximide] | 11 nM | – | – | IC50 (CDK2/CycE): 4 nM |
| COC[C@@H](Nc1nc(Nc2ccc(S(C)(=N)=O)cc2)ncc1Br)[C@@H](C)O (mixture of isomers) [Example 1.47, (RS)-S-{4-[(5-bromo-4-{[(1R,2R)-2-hydroxy-1-(methoxymethyl)-propyl]amino}pyrimidin-2-yl)amino]phenyl}-S-methyl sulfoximide] | 27 nM | – | – | – |
| CCS(=N)(=O)c1ccc(Nc2ncc(Br)c(N[C@H](COC)[C@@H](C)O)n2)cc1 (mixture of isomers) [Example 1.49, (RS)-S-{4-[(5-bromo-4-{[(1R,2R)-2-hydroxy-1-(methoxymethyl)-propyl]amino}pyrimidin-2-yl)amino]phenyl}-S-ethyl sulfoximide] | – | – | 470 nM | – |
| CCS(=N)(=O)c1ccc(Nc2ncc(Br)c(N[C@H](COC)[C@@H](C)O)n2)cc1 (mixture of isomers) [Example 1.50, (RS)-S-{4-[(5-bromo-4-{[(1R,2R)-2-hydroxy-1-(methoxymethyl)-propyl]amino}pyrimidin-2-yl)amino]phenyl}-S-ethyl sulfoximide] | – | – | 230 nM | – |
| CCS(=N)(=O)c1ccc(Nc2ncc(Br)c(N[C@H](C)[C@@H](C)O)n2)cc1 (mixture of isomers) [Example 1.53, (RS)-S-[4-({5-bromo-4-[(1R,2R)-(2-hydroxy-1-methylpropyl)amino]pyrimidin-2-yl}amino)phenyl]-S-ethyl sulfoximide] | 11 nM | – | – | – |
| Cc1cc(Nc2ncc(Br)c(N[C@H](C)C(C)(C)O)n2)ccc1S(C)(=N)=O (mixture of isomers) [Example 1.57, (RS)-S-[4-({5-bromo-4-[(R)-(2-hydroxy-1,2-dimethylpropyl)amino]pyrimidin-2-yl}amino)-2-methylphenyl]-S-methyl sulfoximide] | – | < 100 nM | 66 nM | – |
| Cc1cc(Nc2ncc(Br)c(N[C@H](C)C(C)(C)O)n2)ccc1S(C)(=N)=O (mixture of isomers) [Example 1.58, (RS)-S-[4-({5-bromo-4-[(R)-(2-hydroxy-1,2-dimethylpropyl)amino]pyrimidin-2-yl}amino)-2-methylphenyl]-S-methyl sulfoximide] | – | – | 45 nM | – |
| Cc1cc(Nc2ncc(Br)c(N[C@H](C)C(C)(C)O)n2)ccc1S(C)(=N)=O (mixture of isomers) [Example 1.59, (RS)-S-[4-({5-bromo-4-[(R)-(2-hydroxy-1,2-dimethylpropyl)amino]pyrimidin-2-yl}amino)-2-methylphenyl]-S-methyl sulfoximide] | – | – | 48 nM | – |
| CC(O)CSc1nc(Nc2ccc(S(C)(=N)=O)cc2)ncc1Br (racemic) [Example 3.4, (RS)-S-[4-({5-bromo-4-[(RS)-(2-hydroxy-propyl)sulfanyl]pyrimidin-2-yl}amino)phenyl]-S-methyl sulfoximide] | 72 nM | 1000 nM | – | – |
| CC(C)(O)CSc1nc(Nc2ccc(S(C)(=N)=O)cc2)ncc1Br (racemic) [Example 3.9, (RS)-S-[4-({5-bromo-4-[(2-hydroxy-2-methyl-propyl)sulfanyl]pyrimidin-2-yl}amino)phenyl]-S-methyl sulfoximide] | 55 nM | 1000 nM | – | IC50 (CDK2/CycE): 8 nM |
| COc1cc(Nc2ncc(Br)c(N[C@H](C)[C@@H](C)O)n2)ccc1S(C)(=N)=O (single isomer, unassigned) [Example 1.25] | – | < 100 nM | – | – |
| COc1cc(Nc2ncc(Br)c(N[C@H](C)[C@@H](C)O)n2)ccc1S(C)(=N)=O (single isomer, unassigned) [Example 1.26] | – | – | – | IC50 [3]: 70 nM |
